The source made the active and inactive calls. No rule for the calls is given here.
System: rodent carcinogenicity bioassays, tumor incidence
Test: CCRIS carcinogenicity studies
Summary of the method: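 NCI-built, expert-reviewed records of carcinogenicity and related test outcomes (mutagenicity, tumor promotion/inhibition) compiled from published and report sources, historical span 1985-2011, not updated.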

## Clc1ccccc1
Species: MOUSE, Strain/Sex: B6C3F1/FEMALE, Route: GAVAGE, Dose: 0, 60, 120 MG/KG IN CORN OIL 5 D/WK FOR 103 WK (STUDY DURATION: 105 WK), Dose: 0, 60, 120 MG/KG IN CORN OIL 5 D/WK FOR 103 WK (STUDY DURATION: 105 WK)
  carcinogen call: inactive; negative
Species: MOUSE, Strain/Sex: B6C3F1/MALE, Route: GAVAGE, Dose: 0, 30, 60 MG/KG IN CORN OIL 5 D/WK FOR 103 WK (STUDY DURATION: 105 WK), Dose: 0, 30, 60 MG/KG IN CORN OIL 5 D/WK FOR 103 WK (STUDY DURATION: 105 WK)
  carcinogen call: inactive; negative
Species: RAT, Strain/Sex: F344/FEMALE, Route: GAVAGE, Dose: 0, 60, 120 MG/KG IN CORN OIL 5 D/WK FOR 103 WK (STUDY DURATION: 105 WK), Dose: 0, 60, 120 MG/KG IN CORN OIL 5 D/WK FOR 103 WK (STUDY DURATION: 105 WK)
  carcinogen call: inactive; negative
Species: RAT, Strain/Sex: F344/MALE, Route: GAVAGE, Dose: 0, 60, 120 MG/KG IN CORN OIL 5 D/WK FOR 103 WK (STUDY DURATION: 105 WK), Dose: 0, 60, 120 MG/KG IN CORN OIL 5 D/WK FOR 103 WK (STUDY DURATION: 105 WK), Tumor Site: Type of Lesion: LIVER: NEOPLASTIC NODULE, NEOPLASTIC NODULE OR CARCINOMA
  carcinogen call: equivocal

## CN[C@@H](C)[C@H](O)c1ccccc1
Species: MOUSE, Strain/Sex: B6C3F1/FEMALE, Route: ORAL, Dose: 0, 125, 250 PPM IN DIET FOR 103 WK, Dose: 0, 125, 250 PPM IN DIET FOR 103 WK
  carcinogen call: inactive; negative
Species: MOUSE, Strain/Sex: B6C3F1/MALE, Route: ORAL, Dose: 0, 125, 250 PPM IN DIET FOR 103 WK, Dose: 0, 125, 250 PPM IN DIET FOR 103 WK
  carcinogen call: inactive; negative
Species: RAT, Strain/Sex: F344/FEMALE, Route: ORAL, Dose: 0, 125, 250 PPM IN DIET FOR 103 WK, Dose: 0, 125, 250 PPM IN DIET FOR 103 WK
  carcinogen call: inactive; negative
Species: RAT, Strain/Sex: F344/MALE, Route: ORAL, Dose: 0, 125, 250 PPM IN DIET FOR 103 WK, Dose: 0, 125, 250 PPM IN DIET FOR 103 WK
  carcinogen call: inactive; negative

## C[C@]12CC[C@@H]3c4ccc(O)cc4CC[C@H]3[C@@H]1CC[C@H]2O
Species: HAMSTER, Strain/Sex: SYRIAN/MALE, Route: SUBCUTANEOUS IMPLANT, Dose: 0, 20 MG IN PELLETS IMPLANTED EVERY 2.5 MO FOR 9 MO (STUDY DURATION: 9 MO)
  carcinogen call: inactive; negative

## Oc1ccc2ccccc2c1N=Nc1ccc(N=Nc2ccccc2)cc1
Species: MOUSE, Strain/Sex: SWISS-WEBSTER/FEMALE, Route: DERMAL, Dose: 0, 1% IN 0.1 ML 0.1% SODIUM LAURYL SULFATE 1/WK FOR 18 MO (STUDY DURATION: 18 MO)
  carcinogen call: inactive; negative
Species: MOUSE, Strain/Sex: SWISS-WEBSTER/MALE, Route: DERMAL, Dose: 0, 1% IN 0.1 ML 0.1% SODIUM LAURYL SULFATE 1/WK FOR 18 MO (STUDY DURATION: 18 MO)
  carcinogen call: inactive; negative

## Nc1c(Cl)cc(Cl)cc1Cl
Species: MOUSE, Strain/Sex: CD-1/MALE, Route: ORAL, Dose: 6000, 12000 PPM IN DIET, Tumor Site: Type of Lesion: BLOOD VESSELS
  carcinogen call: active; positive

## C=CC(=C)CCC=C(C)C
Species: Mouse, Strain/Sex: B6C3F1 / Female (50/Group), Route: Oral, Dose: 0, 0.25, 0.5, 1 g/kg in corn oil, by gavage, 5 d/wk for 104-105 wk, Dose: 0, 0.25, 0.5, 1 g/kg in corn oil, by gavage, 5 d/wk for 104-105 wk
  carcinogen call: inactive; negative. (authors describe results as equivocal based on incidences of hepatoce
Species: Mouse, Strain/Sex: B6C3F1 / Male (50/Group), Route: Oral, Dose: 0, 0.25, 0.5, 1 g/kg in corn oil, by gavage, 5 d/wk for 104-105 wk, Dose: 0, 0.25, 0.5, 1 g/kg in corn oil, by gavage, 5 d/wk for 104-105 wk, Tumor Site: Type of Lesion: Liver: hepatocellular adenoma (26/50, 41/50, 43/50), hepatocellular carcinoma (14/50, 20/50, 28/50), hepatocellular aden, Tumor Site: Type of Lesion: Liver: hepatocellular adenoma (26/50, 41/50, 43/50), hepatocellular carcinoma (14/50, 20/50, 28/50), hepatocellular aden
  carcinogen call: active; positive (authors describe as clear evidence)
Species: Rat, Strain/Sex: F344/N / Female (50/Group), Route: Oral, Dose: 0, 0.25, 0.5, 1 g/kg in corn oil, by gavage, 5 d/wk for 105 wk, Dose: 0, 0.25, 0.5, 1 g/kg in corn oil, by gavage, 5 d/wk for 105 wk
  carcinogen call: inactive; negative. (authors describe findings as equivocal based on renal tubule adenoma
Species: Rat, Strain/Sex: F344/N / Male (50/Group), Route: Oral, Dose: 0, 0.25, 0.5, 1 g/kg in corn oil, by gavage, 5 d/wk for 105 wk, Dose: 0, 0.25, 0.5, 1 g/kg in corn oil, by gavage, 5 d/wk for 105 wk, Tumor Site: Type of Lesion: Kidney: renal tubule adenoma (standard evaluation - 0/50, 4/50, 8/50, standard and extended evaluations combined - 0/50
  carcinogen call: active; positive (authors describe as clear evidence)

## O=[N+]([O-])c1ccc2c(c1)Cc1ccccc1-2
Species: RAT, Strain/Sex: WISTAR/MALE, Route: ORAL, Dose: 0, 0.24, 0.95, 2.37 MMOL/KG DIET FOR 11 MO FOLLOWED BY BASAL DIET FOR 13 MO (STUDY DURATION: 24 MO), Dose: 0, 0.24, 0.95, 2.37 MMOL/KG DIET FOR 11 MO FOLLOWED BY BASAL DIET FOR 13 MO (STUDY DURATION: 24 MO), Tumor Site: Type of Lesion: LIVER: HEPATOCELLULAR CARCINOMA, FORESTOMACH: SQUAMOUS CELL CARCINOMA, KIDNEY: CARCINOMA, Tumor Site: Type of Lesion: LIVER: HEPATOCELLULAR CARCINOMA, FORESTOMACH: SQUAMOUS CELL CARCINOMA, KIDNEY: CARCINOMA
  carcinogen call: active; positive

## O=C(O)[C@H]1O[C@@H](N(O)c2ccc3c(c2)Cc2ccccc2-3)[C@H](O)[C@@H](O)[C@@H]1O
Species: RAT, Strain/Sex: F344/MALE, Route: INJECTION, Dose: 0, 1 UMOL IN 0.5 ML OF SOLUTION CONTAINING 0.4 ML PHOSPHATE BUFFERED SALINE/ GENTAMYCIN (PH 7) AND 0.1 ML DMSO INJECTED, Tumor Site: Type of Lesion: BLADDER: CARCINOMA
  carcinogen call: active; positive

## CN(C)C(=O)Cl
Species: MOUSE, Route: DERMAL, Tumor Site: Type of Lesion: INTEGUMENTARY SYSTEM (SKIN)
  carcinogen call: active; positive
Species: MOUSE, Route: INTRAPERITONEAL, SUBCUTANEOUS, Tumor Site: Type of Lesion: INJECTION SITE
  carcinogen call: active; positive

## C1CCOC1
Species: MOUSE, Strain/Sex: B6C3F1/FEMALE, Route: INHALATION, Dose: 0, 200, 600, 1800 PPM 6HR/D 5 D/WK FOR 105 WK (STUDY DURATION: 105 WK), Dose: 0, 200, 600, 1800 PPM 6HR/D 5 D/WK FOR 105 WK (STUDY DURATION: 105 WK), Tumor Site: Type of Lesion: LIVER: ADENOMA OR CARCINOMA
  carcinogen call: active; positive
Species: MOUSE, Strain/Sex: B6C3F1/FEMALE, Route: INHALATION, Dose: 0, 200, 600, 1800 PPM 6 HR/D 5 D/WK FOR 105 WK (STUDY DURATION: 105 WK), Dose: 0, 200, 600, 1800 PPM 6 HR/D 5 D/WK FOR 105 WK (STUDY DURATION: 105 WK), Tumor Site: Type of Lesion: LIVER: HEPATOCELLULAR ADENOMA, HEPATOCELLULAR CARCINOMA
  carcinogen call: active; positive
Species: MOUSE, Strain/Sex: B6C3F1/MALE, Route: INHALATION, Dose: 0, 200, 600, 1800 PPM 6 HR/D 5 D/WK FOR 105 WK (STUDY DURATION: 105 WK), Dose: 0, 200, 600, 1800 PPM 6 HR/D 5 D/WK FOR 105 WK (STUDY DURATION: 105 WK)
  carcinogen call: inactive; negative
Species: RAT, Strain/Sex: F344/FEMALE, Route: INHALATION, Dose: 0, 200, 600, 1800 PPM 6 HR/D 5 D/WK FOR 105 WK (STUDY DURATION: 105 WK), Dose: 0, 200, 600, 1800 PPM 6 HR/D 5 D/WK FOR 105 WK (STUDY DURATION: 105 WK)
  carcinogen call: inactive; negative
Species: RAT, Strain/Sex: F344/MALE, Route: INHALATION, Dose: 0, 200, 600, 1800 PPM 6 HR/D 5 D/WK FOR 105 WK (STUDY DURATION: 105 WK), Dose: 0, 200, 600, 1800 PPM 6 HR/D 5 D/WK FOR 105 WK (STUDY DURATION: 105 WK), Tumor Site: Type of Lesion: KIDNEY: RENAL TUBULE ADENOMA OR CARCINOMA
  carcinogen call: active; positive

## O[C@H]1C=Cc2c(ccc3cccnc23)[C@@H]1O
Species: MOUSE, Strain/Sex: CD-1/FEMALE, Route: INTRAPERITONEAL, Dose: 0, 5, 10 AND 20 µL OF A 0.05 MOLAR SOLUTION ON DAYS 1, 8 AND 15 OF LIFE RESPECTIVELY (TOTAL DOSE: 1.75 UMOL) (STUDY DURA, Dose: 0, 5, 10 AND 20 µL OF A 0.05 MOLAR SOLUTION ON DAYS 1, 8 AND 15 OF LIFE RESPECTIVELY (TOTAL DOSE: 1.75 UMOL) (STUDY DURA
  carcinogen call: inactive; negative
Species: MOUSE, Strain/Sex: CD-1/MALE, Route: INTRAPERITONEAL, Dose: 0, 5, 10 AND 20 µL OF A 0.05 MOLAR SOLUTION ON DAYS 1, 8 AND 15 OF LIFE RESPECTIVELY (TOTAL DOSE: 1.75 UMOL) (STUDY DURA, Dose: 0, 5, 10 AND 20 µL OF A 0.05 MOLAR SOLUTION ON DAYS 1, 8 AND 15 OF LIFE RESPECTIVELY (TOTAL DOSE: 1.75 UMOL) (STUDY DURA
  carcinogen call: inactive; negative

From PubChem BioAssay AID1259411 (Chemical Carcinogenesis Research Information System (CCRIS), 2018)
